Holding throughout (assay): DTP human tumour cell line panel, 48 h
For experiment [1], the system named is COLO 205.
For experiment [2], the system named is SR.
Experiment [3] relates to UACC-62.
For experiment [4], the system named is MDA-MB-435.
Experiment [5] has as its system SK-MEL-28.
Experiment [6] concerns NCI/ADR-RES.
Experiment [7] has as its system CCRF-CEM.
Experiment [8] deals with K562.
Experiment [9] deals with 786-0.
Experiment [10] relates to CAKI-1.
Experiment [11] has as its system MDA-MB-231.
The subject of experiment [12] is HOP-62.
For experiment [13], the system named is SF-268.
Experiment [14] deals with SF-295.
Experiment [15] deals with MCF7.
The subject of experiment [16] is A498.
In experiment [17] the test system is SF-539.
Experiment [18] concerns OVCAR-5.
Experiment [19] has as its system NCI-H23.
The test system of experiment [20] is HOP-92.

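Protocol summary: plate cells (96-well), add compound at 5 concentrations, incubate 48 h, interpolate endpoints linearly. Abbreviation: GI50, concentration required for 50% inhibition of growth.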 Active and inactive are the calls of the source. No stated cut-off is given here; in the data, active = GI50 up to about 1.1 µM and inactive = higher.

As a reminder, the GI50 is the concentration that inhibits growth by half. For `Nc1nc(Cl)c(C=O)c(NCC2(CO)CCC2)n1`, the GI50 in experiment [1] was 25.7 µM (inactive); in experiment [2], 3.21 µM (inactive); in [3] it was 14.3 µM (inactive); in experiment [4] it was 28.8 µM (inactive); in [5] it was 34.8 µM (inactive); in [6], 40 µM (inactive). Moreover, the GI50 in [7] was 12.9 µM (inactive); in experiment [8], 3.83 µM (inactive); in [9], 76 µM (inactive); in experiment [10], 13.6 µM (inactive); in experiment [11] it was 22.9 µM (inactive); in [12] it was 25.4 µM (inactive). In addition, the GI50 is 16.6 µM (inactive) in experiment [13]; 22.8 µM (inactive) in experiment [14]; > 100 µM (inactive) in experiment [15]; 25.1 µM (inactive) in experiment [16]; 32.7 µM (inactive) in experiment [17]; > 100 µM (inactive) in [18]. In addition, the GI50 was 26.4 µM (inactive) in [19] and 15.3 µM (inactive) in experiment [20].
As to `Cc1c2cccc-2c(OCCO)cc2c1[nH]c1ccccc12`, the GI50 in [1] is 1.87 µM (inactive); in experiment [2], 5.27 µM (inactive); in [3], 2.67 µM (inactive); in experiment [4], 3.53 µM (inactive); in [5], 4.49 µM (inactive); in [6] it was 3.03 µM (inactive). The GI50 in experiment [7] was 4.75 µM (inactive); in experiment [8], 3.1 µM (inactive); in [9] it was 2.24 µM (inactive); in experiment [10], 1.59 µM (inactive); in experiment [11] it was 1.98 µM (inactive); in experiment [12], 3.42 µM (inactive). Moreover, the GI50 in experiment [13] was 1.65 µM (inactive); in experiment [14], 3.26 µM (inactive); in [15], 2.69 µM (inactive); in [16], 11.8 µM (inactive); in experiment [17], 1.74 µM (inactive); in experiment [18], 2.26 µM (inactive). Moreover, the GI50 is 2.54 µM (inactive) in experiment [19] and 2.75 µM (inactive) in experiment [20].
As for `O=C(Nc1sccc1S(=O)(=O)c1ccc(Cl)cc1)c1ccc(Cl)cc1`, the GI50 in experiment [1], in [2], in experiment [3], in experiment [4], in experiment [5] and in experiment [6] was > 100 µM (inactive) throughout. Also, the GI50 in experiment [7] was > 100 µM (inactive); in [8], > 100 µM (inactive); in experiment [9] it was 52.7 µM (inactive); in experiment [10] it was 80.4 µM (inactive); in [11] it was 35.2 µM (inactive); in experiment [12], 39.4 µM (inactive). Also, the GI50 is 65.9 µM (inactive) in experiment [13]; 34 µM (inactive) in experiment [14]; 99.8 µM (inactive) in experiment [15]; > 100 µM (inactive) in experiment [16]; 39.9 µM (inactive) in experiment [17]; > 100 µM (inactive) in [18]. Besides, the GI50 in experiment [19] is 68.5 µM (inactive); in [20] it was 73.1 µM (inactive).
Regarding `C[N+](C)(C)CC(=O)N/N=C\c1c(O)ccc2ccccc12`, the GI50 in experiment [1] was > 100 µM (inactive); in experiment [2] it was 33.2 µM (inactive); in experiment [3], 28.2 µM (inactive); in experiment [4] it was 39.3 µM (inactive); in experiment [5], 48.2 µM (inactive); in experiment [6] it was 33.7 µM (inactive). Also, the GI50 in experiment [7] was 27.8 µM (inactive); in experiment [8], 31.9 µM (inactive); in experiment [9] it was 37.8 µM (inactive); in experiment [10], 40.9 µM (inactive); in experiment [11], 92.9 µM (inactive); in [12], 26.7 µM (inactive). For the same compound, the GI50 in experiment [13] is 10.7 µM (inactive); in experiment [14], 46.1 µM (inactive); in [15] it was 59.7 µM (inactive); in experiment [16] it was 29.5 µM (inactive); in experiment [17] it was 31.5 µM (inactive); in experiment [18] it was 57.1 µM (inactive). Also, the GI50 is 36 µM (inactive) in [19] and 13.2 µM (inactive) in experiment [20].
In the case of `C[C@H](CCC(=O)O)[C@H]1CC[C@H]2[C@@H]3[C@H](O)C[C@@H]4C[C@H](O)CC[C@]4(C)[C@H]3CC[C@]12C` [CHENODIOL], the GI50 was 22.8 µM (inactive) in experiment [1]; 14.6 µM (inactive) in [2]; 36.6 µM (inactive) in experiment [3]; 37 µM (inactive) in experiment [4]; 42.6 µM (inactive) in experiment [5]; 36.6 µM (inactive) in [6]. Moreover, the GI50 was 33.1 µM (inactive) in experiment [7]; 35.6 µM (inactive) in experiment [8]; 36.3 µM (inactive) in [9]; 37.2 µM (inactive) in experiment [10]; 49.3 µM (inactive) in [11]; 37.2 µM (inactive) in [12]. For the same compound, the GI50 in experiment [13] was 44.1 µM (inactive); in experiment [15], 30.8 µM (inactive); in experiment [16], 69.5 µM (inactive); in experiment [17], 24.7 µM (inactive); in experiment [18], 52.6 µM (inactive); in [19], 27.9 µM (inactive). Besides, the GI50 in [20] was 30.3 µM (inactive).
In the case of `CC1(C)OC2C(O)C(CO)OC2(C(F)F)O1` (configuration not stated), the GI50 in experiment [1] is > 100 µM (inactive); in [2], > 100 µM (inactive); in experiment [3], > 100 µM (inactive); in experiment [4] it was > 63.5 µM (inactive); in [5], > 100 µM (inactive); in experiment [6], > 100 µM (inactive). Besides, the GI50 in experiment [7], in experiment [8], in experiment [9], in experiment [10], in experiment [11] and in experiment [12] was > 100 µM (inactive) throughout. Further, the GI50 in experiment [13], in experiment [14], in [15], in experiment [16], in experiment [17] and in experiment [18] was > 100 µM (inactive) in each case. The GI50 in experiment [20] is > 100 µM (inactive).
As for `CC(C)=CCC[C@]1(C)C=Cc2c(O)c3c(c(CC=C(C)C)c2O1)O[C@]12C(=C[C@@H]4CC1C(C)(C)O[C@@]2(C/C=C(/C)C(=O)O)C4=O)C3=O`, the GI50 in experiment [2] is 0.317 µM (active); in [3] it was 1.73 µM (inactive); in experiment [4] it was 1.03 µM (active); in [5], 1.28 µM (inactive); in experiment [6], 1.92 µM (inactive); in experiment [7], 0.273 µM (active). The GI50 is 0.676 µM (active) in experiment [8]; 0.488 µM (active) in [9]; 0.973 µM (active) in experiment [10]; 1.07 µM (active) in [11]; 1.69 µM (inactive) in [12]; 1.45 µM (inactive) in [13]. Further, the GI50 in experiment [14] is 2.3 µM (inactive); in experiment [15] it was 0.376 µM (active); in experiment [16], 1.73 µM (inactive); in experiment [17] it was 0.206 µM (active); in [18] it was 1.5 µM (inactive); in [19], 0.938 µM (active). For the same compound, the GI50 in [20] is 1.78 µM (inactive).

For the origin of these results see ChEMBL document CHEMBL1201862, “PubChem BioAssay data set” (2004).
